Active and inactive are the calls of the source. The rule behind the calls is not given here.
Tests used:
[1] = tested on: MDA-MB-468; assay: Growth inhibition of human MDA-MB-468 cells assessed as cell viability measured after 4 days by WST8 assay; assay type: functional, cell-based; conditions: MDA-MB-468, 96 h
[2] = tested on: BT-549; assay: Growth inhibition of human BT-549 cells assessed as cell viability measured after 4 days by WST8 assay; assay type: functional, cell-based; conditions: BT-549, 96 h
[3] = tested on: MDA-MB-231; assay: Growth inhibition of human MDA-MB-231 cells assessed as cell viability measured after 4 days by WST8 assay; assay type: functional, cell-based; conditions: MDA-MB-231, 96 h
[4] = target: Protein cereblon/Cyclin-dependent kinase 9 (Homo sapiens) (UniProt P50750+Q96SW2); assay: Protac activity at CRBN/CDK9 in human MDA-MB-231 cells assessed as induction of degradation of CDK9 pretreated with MLN4924 at 500 nM incubated for 8 hrs by Western blot analysis; assay type: cell-based
Protein cereblon/Cyclin-dependent kinase 9 (Homo sapiens), sequence (P50750 whole entry, looked up): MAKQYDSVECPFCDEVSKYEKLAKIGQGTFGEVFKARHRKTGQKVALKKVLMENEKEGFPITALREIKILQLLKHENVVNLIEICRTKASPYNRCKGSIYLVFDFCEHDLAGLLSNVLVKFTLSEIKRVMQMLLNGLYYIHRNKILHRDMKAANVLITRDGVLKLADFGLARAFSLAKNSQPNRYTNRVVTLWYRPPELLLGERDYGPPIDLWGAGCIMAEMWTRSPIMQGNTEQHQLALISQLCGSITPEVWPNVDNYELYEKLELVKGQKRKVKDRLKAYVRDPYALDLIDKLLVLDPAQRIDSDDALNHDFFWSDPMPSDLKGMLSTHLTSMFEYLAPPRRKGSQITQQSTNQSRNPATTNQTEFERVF
Protein cereblon/Cyclin-dependent kinase 9 (Homo sapiens), sequence (Q96SW2 whole entry, looked up): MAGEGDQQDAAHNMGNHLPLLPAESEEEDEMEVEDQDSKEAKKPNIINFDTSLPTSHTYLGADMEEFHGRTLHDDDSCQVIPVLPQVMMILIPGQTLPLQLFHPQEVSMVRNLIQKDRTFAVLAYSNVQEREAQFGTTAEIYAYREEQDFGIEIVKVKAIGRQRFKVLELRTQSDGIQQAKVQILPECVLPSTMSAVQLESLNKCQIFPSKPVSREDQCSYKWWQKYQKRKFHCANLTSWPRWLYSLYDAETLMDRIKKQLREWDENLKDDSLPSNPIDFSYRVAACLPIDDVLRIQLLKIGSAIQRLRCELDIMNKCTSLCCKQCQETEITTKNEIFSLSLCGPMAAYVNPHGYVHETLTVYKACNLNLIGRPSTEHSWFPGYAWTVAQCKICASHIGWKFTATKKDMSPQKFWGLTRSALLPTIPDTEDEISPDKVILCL

[5] = target: Protein cereblon/Cyclin-dependent kinase 1 (Homo sapiens) (UniProt P06493+Q96SW2); assay: Protac activity at CRBN/CDK1 in human MDA-MB-231 cells assessed as induction of degradation of CDK1 at 100 to 500 nM incubated for 4 to 8 hrs by Western blot analysis; assay type: cell-based; conditions: dose 100-500 nM, time 4-8 hrs
Protein cereblon/Cyclin-dependent kinase 1 (Homo sapiens), sequence (P06493 whole entry, looked up): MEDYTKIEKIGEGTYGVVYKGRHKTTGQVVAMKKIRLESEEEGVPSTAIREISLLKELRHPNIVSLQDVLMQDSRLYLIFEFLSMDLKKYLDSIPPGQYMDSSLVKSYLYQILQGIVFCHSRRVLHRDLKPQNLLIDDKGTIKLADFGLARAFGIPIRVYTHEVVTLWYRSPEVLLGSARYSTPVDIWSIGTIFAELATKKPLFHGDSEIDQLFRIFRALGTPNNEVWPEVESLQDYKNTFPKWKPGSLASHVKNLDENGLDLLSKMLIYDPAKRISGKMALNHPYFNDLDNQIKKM
Protein cereblon/Cyclin-dependent kinase 1 (Homo sapiens), sequence (Q96SW2 whole entry, looked up): as the sequence (Q96SW2 whole entry, looked up) above

[6] = target: Protein cereblon/Cyclin-dependent kinase 2 (Homo sapiens) (UniProt P24941+Q96SW2); assay: Protac activity at CRBN/CDK2 in human MDA-MB-231 cells assessed as induction of degradation of CDK2 at 100 to 500 nM incubated for 4 to 8 hrs by Western blot analysis; assay type: cell-based; conditions: dose 100-500 nM, time 4-8 hrs
[7] = target: Protein cereblon/Cyclin-dependent kinase 4 (Homo sapiens) (UniProt P11802+Q96SW2); assay: Protac activity at CRBN/CDK4 in human MDA-MB-231 cells assessed as induction of degradation of CDK4 at 100 to 500 nM incubated for 4 to 8 hrs by Western blot analysis; assay type: cell-based; conditions: dose 100-500 nM, time 4-8 hrs
Protein cereblon/Cyclin-dependent kinase 4 (Homo sapiens), sequence (P11802 2-303 limits assumed): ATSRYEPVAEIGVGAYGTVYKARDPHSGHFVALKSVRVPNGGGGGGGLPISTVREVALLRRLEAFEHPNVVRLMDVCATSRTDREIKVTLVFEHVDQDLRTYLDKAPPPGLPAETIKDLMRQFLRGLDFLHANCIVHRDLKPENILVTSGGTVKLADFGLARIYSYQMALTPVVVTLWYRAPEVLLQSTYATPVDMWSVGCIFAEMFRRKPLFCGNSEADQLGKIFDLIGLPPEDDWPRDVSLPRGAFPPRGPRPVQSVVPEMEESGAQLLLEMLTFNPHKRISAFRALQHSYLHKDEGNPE
Protein cereblon/Cyclin-dependent kinase 4 (Homo sapiens), sequence (Q96SW2 whole entry partner): as the sequence (Q96SW2 whole entry, looked up) above

[8] = target: Protein cereblon/Cyclin-dependent kinase 5 (Homo sapiens) (UniProt Q00535+Q96SW2); assay: Protac activity at CRBN/CDK5 in human MDA-MB-231 cells assessed as induction of degradation of CDK5 at 100 to 500 nM incubated for 4 to 8 hrs by Western blot analysis; assay type: cell-based; conditions: dose 100-500 nM, time 4-8 hrs
Protein cereblon/Cyclin-dependent kinase 5 (Homo sapiens), sequence (Q00535 whole entry, looked up): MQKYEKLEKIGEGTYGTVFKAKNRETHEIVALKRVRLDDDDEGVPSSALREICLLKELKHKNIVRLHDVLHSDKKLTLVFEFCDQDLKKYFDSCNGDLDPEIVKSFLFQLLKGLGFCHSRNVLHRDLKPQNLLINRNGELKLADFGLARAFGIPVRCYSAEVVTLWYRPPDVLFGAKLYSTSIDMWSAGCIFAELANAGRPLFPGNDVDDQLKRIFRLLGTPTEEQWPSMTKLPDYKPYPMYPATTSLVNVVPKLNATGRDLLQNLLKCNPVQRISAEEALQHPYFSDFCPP
Protein cereblon/Cyclin-dependent kinase 5 (Homo sapiens), sequence (Q96SW2 whole entry, looked up): as the sequence (Q96SW2 whole entry, looked up) above

[9] = target: Protein cereblon/Cyclin-dependent kinase 6 (Homo sapiens) (UniProt Q00534+Q96SW2); assay: Protac activity at CRBN/CDK6 in human MDA-MB-231 cells assessed as induction of degradation of CDK6 at 100 to 500 nM incubated for 4 to 8 hrs by Western blot analysis; assay type: cell-based; conditions: dose 100-500 nM, time 4-8 hrs
Protein cereblon/Cyclin-dependent kinase 6 (Homo sapiens), sequence (Q00534 whole entry, looked up): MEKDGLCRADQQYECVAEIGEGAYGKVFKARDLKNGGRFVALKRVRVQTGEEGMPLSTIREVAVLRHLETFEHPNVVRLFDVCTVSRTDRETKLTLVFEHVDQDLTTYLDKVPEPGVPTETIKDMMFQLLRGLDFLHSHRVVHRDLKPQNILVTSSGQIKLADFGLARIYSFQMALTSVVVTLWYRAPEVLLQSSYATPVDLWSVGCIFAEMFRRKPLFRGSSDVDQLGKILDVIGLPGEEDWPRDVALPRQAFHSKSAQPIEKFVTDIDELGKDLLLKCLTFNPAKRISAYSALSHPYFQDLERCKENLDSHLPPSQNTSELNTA
Protein cereblon/Cyclin-dependent kinase 6 (Homo sapiens), sequence (Q96SW2 whole entry, looked up): as the sequence (Q96SW2 whole entry, looked up) above

[10] = target: Protein cereblon/Cyclin-dependent kinase 7 (Homo sapiens) (UniProt P50613+Q96SW2); assay: Protac activity at CRBN/CDK7 in human MDA-MB-231 cells assessed as induction of degradation of CDK7 at 100 to 500 nM incubated for 4 to 8 hrs by Western blot analysis; assay type: cell-based; conditions: dose 100-500 nM, time 4-8 hrs
Protein cereblon/Cyclin-dependent kinase 7 (Homo sapiens), sequence (P50613 whole entry, looked up): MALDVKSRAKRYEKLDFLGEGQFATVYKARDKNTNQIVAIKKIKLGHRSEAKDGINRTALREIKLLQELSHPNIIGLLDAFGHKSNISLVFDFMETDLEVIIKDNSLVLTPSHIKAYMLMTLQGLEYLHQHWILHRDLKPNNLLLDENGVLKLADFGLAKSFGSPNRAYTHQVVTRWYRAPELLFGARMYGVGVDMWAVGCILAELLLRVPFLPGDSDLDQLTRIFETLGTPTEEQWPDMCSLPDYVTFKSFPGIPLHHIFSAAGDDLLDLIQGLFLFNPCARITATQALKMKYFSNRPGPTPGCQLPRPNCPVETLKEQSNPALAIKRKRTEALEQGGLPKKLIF
Protein cereblon/Cyclin-dependent kinase 7 (Homo sapiens), sequence (Q96SW2 whole entry, looked up): as the sequence (Q96SW2 whole entry, looked up) above

[11] = target: Protein cereblon/Eukaryotic peptide chain release factor GTP-binding subunit ERF3A (Homo sapiens) (UniProt Q96SW2+P15170); assay: Protac activity at CRBN/GSPT1 in human MDA-MB-231 cells assessed as induction of degradation of GSPT1 incubated for 4 to 8 hrs by Western blot analysis; assay type: cell-based; conditions: time 4-8 hrs
Protein cereblon/Eukaryotic peptide chain release factor GTP-binding subunit ERF3A (Homo sapiens), sequence (P15170 whole entry, looked up): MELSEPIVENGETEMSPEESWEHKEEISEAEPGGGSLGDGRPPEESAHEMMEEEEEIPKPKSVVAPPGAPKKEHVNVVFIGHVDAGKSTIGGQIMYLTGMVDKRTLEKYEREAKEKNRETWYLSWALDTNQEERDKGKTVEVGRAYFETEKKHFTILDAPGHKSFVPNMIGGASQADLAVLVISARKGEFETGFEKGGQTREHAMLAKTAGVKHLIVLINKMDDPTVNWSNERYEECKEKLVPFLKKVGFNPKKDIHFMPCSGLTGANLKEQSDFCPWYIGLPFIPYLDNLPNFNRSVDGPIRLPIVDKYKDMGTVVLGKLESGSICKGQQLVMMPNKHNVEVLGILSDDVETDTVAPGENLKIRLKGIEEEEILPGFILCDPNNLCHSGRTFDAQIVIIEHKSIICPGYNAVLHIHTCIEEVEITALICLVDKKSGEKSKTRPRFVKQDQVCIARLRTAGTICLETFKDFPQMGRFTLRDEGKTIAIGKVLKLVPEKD
Protein cereblon/Eukaryotic peptide chain release factor GTP-binding subunit ERF3A (Homo sapiens), sequence (Q96SW2 whole entry, looked up): as the sequence (Q96SW2 whole entry, looked up) above

[12] = tested on: Tumour; assay: Induction of CDK9 degradation in tumor of human MDA-MB-231 cells xenografted in BALB/c mouse model at 0.15 mM intratumoral injection measured after 16 hrs by Western blot analysis relative to control; assay type: functional, Neoplasm
[13] = tested on: Tumour; assay: Induction of CDK7 degradation in tumor of human MDA-MB-231 cells xenografted in BALB/c mouse model at 0.15 mM intratumoral injection measured after 16 hrs by Western blot analysis relative to control; assay type: functional, tissue-based; conditions: Neoplasm
[14] = tested on: MDA-MB-231; assay: Antitumor activity against human MDA-MB-231 cells xenografted in BALB/c mouse model assessed as decrease in tumor volume at 2.5 mg/kg, intratumoral injection daily for 7 days relative to control; assay type: functional; design: scale not given: the % may be the effect or the level left; conditions: time 7 day
[15] = tested on: MDA-MB-231; assay: Antitumor activity against human MDA-MB-231 cells xenografted in BALB/c mouse model assessed as decrease in tumor volume at 5 mg/kg, intratumoral injection daily for 7 days relative to control; assay type: functional; design: scale not given: the % may be the effect or the level left; conditions: time 7 day
[16] = Toxicity in BALB/c mouse xenografted with human MDA-MB-231 cells assessed as body weight loss at 2.5 mg/kg, intratumoral injection daily for 7 days; assay type: organism-based; conditions: in vivo, other, 168 h, time 7 day
[17] = Toxicity in BALB/c mouse xenografted with human MDA-MB-231 cells assessed as body weight loss at 5 mg/kg, intratumoral injection daily for 7 days; assay type: organism-based; conditions: in vivo, other, 168 h, time 7 day
[18] = tested on: MDA-MB-231; assay: Antitumor activity against human MDA-MB-231 cells xenografted in BALB/c mouse model assessed as induction of CDK9 degradation in tumor tissue at 2.5 mg/kg, intratumoral injection daily for 7 days by Western blot analysis relative to control; assay type: functional, organism-based; conditions: time 7.0 day
[19] = tested on: MDA-MB-231; assay: Antitumor activity against human MDA-MB-231 cells xenografted in BALB/c mouse model assessed as induction of CDK9 degradation in tumor tissue at 5 mg/kg, intratumoral injection daily for 7 days by Western blot analysis relative to control; assay type: functional, organism-based; conditions: time 7.0 day
[20] = tested on: Tumour; assay: Effect on CDK7 protein level in tumor of BALB/c mouse xenografted with human MDA-MB-231 cells at 2.5 to 5 mg/kg, intratumoral injection daily for 7 days by Western blot analysis relative to control; assay type: functional, organism-based; conditions: Neoplasm, dose 2.5-5 mg/kg, time 7.0 day
[21] = tested on: Tumour; assay: Reduction in CDK9 protein level in tumor of BALB/c mouse xenografted with human MDA-MB-231 cells at 2.5 mg/kg, intratumoral injection daily for 7 days by immunohistochemistry staining analysis relative to control; assay type: functional; conditions: MDA-MB-231, Neoplasm, 168 h, time 7 day
[22] = tested on: Tumour; assay: Reduction in CDK9 protein level in tumor of BALB/c mouse xenografted with human MDA-MB-231 cells at 5 mg/kg, intratumoral injection daily for 7 days by immunohistochemistry staining analysis relative to control; assay type: functional; conditions: MDA-MB-231, Neoplasm, 168 h, time 7 day
[23] = tested on: Tumour; assay: Reduction in MYC protein level in tumor of BALB/c mouse xenografted with human MDA-MB-231 cells at 2.5 mg/kg, intratumoral injection daily for 7 days by immunohistochemistry staining analysis relative to control; assay type: functional; conditions: MDA-MB-231, Neoplasm, 168 h, time 7 day
[24] = tested on: Tumour; assay: Reduction in MYC protein level in tumor of BALB/c mouse xenografted with human MDA-MB-231 cells at 5 mg/kg, intratumoral injection daily for 7 days by immunohistochemistry staining analysis relative to control; assay type: functional; conditions: MDA-MB-231, Neoplasm, 168 h, time 7 day
[25] = tested on: Tumour; assay: Reduction in CDK7 protein level in tumor of BALB/c mouse xenografted with human MDA-MB-231 cells at 2.5 mg/kg, intratumoral injection daily for 7 days by immunohistochemistry staining analysis relative to control; assay type: functional; conditions: MDA-MB-231, Neoplasm, 168 h, time 7 day
[26] = tested on: Tumour; assay: Reduction in CDK7 protein level in tumor of BALB/c mouse xenografted with human MDA-MB-231 cells at 5 mg/kg, intratumoral injection daily for 7 days by immunohistochemistry staining analysis relative to control; assay type: functional; conditions: MDA-MB-231, Neoplasm, 168 h, time 7 day
[27] = tested on: Tumour; assay: Reduction in Ki-67 protein level in tumor of BALB/c mouse xenografted with human MDA-MB-231 cells at 2.5 mg/kg, intratumoral injection daily for 7 days by immunohistochemistry staining analysis relative to control; assay type: functional; conditions: MDA-MB-231, Neoplasm, 168 h, time 7 day
[28] = tested on: Tumour; assay: Reduction in Ki-67 protein level in tumor of BALB/c mouse xenografted with human MDA-MB-231 cells at 5 mg/kg, intratumoral injection daily for 7 days by immunohistochemistry staining analysis relative to control; assay type: functional; conditions: MDA-MB-231, Neoplasm, 168 h, time 7 day

SMILES: CC[C@@H](CO)Nc1cc(NCc2ccc(NC(=O)N3CCN(CCCCCc4cccc5c4CN(C4CCC(=O)NC4=O)C5=O)CC3)cc2)n2ncc(C(C)C)c2n1 (stereo partly drawn)
- IC50 [1]: 15 µM
- IC50 [2]: 13.6 µM
- IC50 [3]: 3.9 µM
- Activity [4]: Active
- Activity [5]: inactive
- Activity [6]: inactive
- Activity [7]: inactive
- Activity [8]: inactive
- Activity [9]: inactive
- Activity [10]: inactive
- Activity [11]: inactive
- Activity [12]: 54%
- Activity [13]: inactive
- Activity [14]: 50%
- Activity [15]: 50%
- Activity [16]: 12.8%
- Activity [17]: 13.1%
- Activity [18]: Active
- Activity [19]: Active
- Activity [20]: inactive
- inhibition in vivo at 2.5 mg/kg [21]: 62.3%
- inhibition in vivo at 5 mg/kg [22]: 90.8%
- inhibition in vivo at 2.5 mg/kg [23]: 41%
- inhibition in vivo at 5 mg/kg [24]: 76.7%
- inhibition in vivo at 2.5 mg/kg [25]: 4%
- inhibition in vivo at 5 mg/kg [26]: 12.4%
- inhibition in vivo at 2.5 mg/kg [27]: 32.8%
- inhibition in vivo at 5 mg/kg [28]: 69.7%
